Source: patent US10660967B2, “Curcumin conjugates and methods of use thereof” (priority 2016, dated 2020)
Values after ≈ are worked out from the molar mass of the structure shown. Values joined by “and” are separate entries in the source; they are usually repeats but may differ in a detail not shown here. Equal entries are not always repeated. Where two headings read alike, the source gives them in different places. Blank lines part the entries; values can stand above or below the molecule they belong to.

How the values were obtained:
[1] = test system: Candida albicans (local isolate); experiment: Antimicrobial MIC, agar dilution; conditions: Candida albicans (local isolate)
[2] = test system: Salmonella typhi ATCC19430; experiment: Antimicrobial MIC, agar dilution; type: cell-based; conditions: Salmonella enterica, read-out: Minimum inhibitory concentration (MIC)
[3] = test system: Staphylococcus aureus ATCC25923; experiment: Antimicrobial MIC, agar dilution; conditions: ATCC25923, 18 h, read-out: Minimum inhibitory concentration (MIC)
[4] = test system: Streptococcus pyogenes ATCC19615; experiment: Antimicrobial MIC, agar dilution
[5] = test system: Pseudomonas aeruginosa ATCC27853; experiment: Antimicrobial MIC, agar dilution
[6] = test system: carrageenan induced paw edema; experiment: Anti-inflammatory activity: acute carrageenan induced paw edema in rats; type: in vivo, Wister rats; conditions: 10 mg kg^−1 indomethacin mol equivalent; for % inhibition of edema / Mean edema thickness: intraperitoneally; for Mean edema thickness: mean ± SE; for Potency (% inhibition of edema relative to that of indomethacin reference standard): at 4 h effect
Summary of the method: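 Wistar rats (120–150 g, n=6/group) received subplantar 1% carrageenan in the right hind paw, and DMSO-vehicle animals served as controls. Results are given as % inhibition of edema thickness versus control.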

[7] = test system: HCT116 (colon) carcinoma cell line; experiment: Anti-tumor properties, MTT; type: cell-based; conditions: Homo sapiens, HCT-116; HCT116, MTT, 72 h; read-out: IC50
Description: (§1) Anti-tumor properties of curcumin conjugates were evaluated. The synthesized curcumin-amino acid conjugates and curcumin itself were screened for their antitumor properties against human tumor cell lines utilizing HepG2 (hepatocellular), MCF7 (breast), and HCT116 (colon) carcinoma cell lines by the standard mitochondrial dependent reduction of yellow MTT [3-(4,5-dimethylthiazol-2-yl)-2,5-diphenyl-tetrazolium bromide] to purple formazan technique. Cancer cells were obtained from the Egyptian Company for Production of Vaccines, Sera and Drugs (VACSERA), Cairo, Egypt. Media, chemicals and supplies for the bio-assay were obtained from Biowest, Gibco and Lonza Companies. Cells were suspended in RPMI-1640 medium for HepG2, DMEMF12 for MCF-7, and DMEM for HCT116 in addition to 1% antibiotic-antimycotic mixture (10 […] potassium penicillin, 10 […] streptomycin sulfate and […] amphotericin B), 10% fetal bovine serum and 1% L-glutamine at 37° C., under 5% CO2 and 95% humidity. Cells were seeded at a concentration of 10×10^3 cells per well in fresh complete growth medium in 96-well tissue culture microtiter plates for 24 h. Media was aspirated, 180 μL fresh medium (without serum) were added and cells were incubated with different concentrations of sample to give a final concentration of 100 μM. 0.5% DMSO was used as a negative control and doxorubicin was used as a positive control (standard reference). Triplicate wells were prepared for each individual tested compound/dose. After 72 h of incubation, the medium was aspirated, 40 μL MTT salt (2.5 mg ml^1) were added to each well and incubated for an additional 4 h at 37° C. To stop the reaction and dissolve the formed crystals, 200 μL of 10% sodium dodecyl sulfate (SDS) in deionized water were added to each well and incubated overnight at 37° C. The absorbance was then measured at 595 nm with a reference wavelength of 620 nm. Data were collected as mean values for experiments performed in triplicates for each compound which had been measured by MTT assay.
(§2) The percentage of cell survival was calculated according to equation (4): […]
(§3) The IC50 was determined using Graph-Pad PRISM version-5 software. Statistical calculations for determination of the mean and standard deviation (SD) values were determined by SPSS 16 software.

[8] = test system: HepG2 (hepatocellular) carcinoma cell line; experiment: Anti-tumor properties, MTT; type: cell-based; conditions: Homo sapiens; HepG2, MTT, 72 h; read-out: IC50
Description: as §1, §2, §3

[9] = test system: MCF7 (breast) carcinoma cell line; experiment: Anti-tumor properties, MTT; type: cell-based; conditions: Homo sapiens; MCF7, MTT, 72 h; read-out: IC50
Description: as §1, §2, §3

MCF-7 cells = experiment: Effect on doxorubicin induced cytotoxicity (MTT)
Description: The effects of curcumin conjugates on doxorubicin induced cytotoxicity were evaluated. In order to further examine whether curcumin derivatives can enhance conventional chemotherapeutic agents, MCF-7 cells were treated with 100 μM curcumin derivatives alone or in combination with 10 μM doxorubicin (DOX) for 48 hr. Control cultures received only medium, vehicle (DMSO), or vehicle+DOX. The percentage of viable cells was determined by MTT assay according to equation (5): […]

gastric mucosa = experiment: Ulcerogenic liability (ulcer index); type: in vivo, albino mice
Description: The ulcerogenic liability was investigated in albino mice using the standard method. […] The animals were fasted 18 h before drug administration. […] The control group animals were given saline solution only with few drops of Tween 80. […] The gastric mucosa was examined with a magnifying lens (10×) for the presence of lesions and erosions.
1. percentage incidence of ulcer divided by 10;
2. average number of ulcers per stomach; and
3. average severity of ulcers;

[10] = test system: PHA-stimulated splenocytes; experiment: Proliferative response of PHA-stimulated splenocytes (MTT assay); type: cell-based
Description: Immunomodulatory effects of the synthesized curcumin conjugates on the proliferative response of PHA-stimulated splenocytes were evaluated. The effect of curcumin and its amino acid conjugates on splenocyte viability and proliferation in response to a T cell miotgen (Phytohaemagglutinin; PHA) was evaluated using the MTT assay. Freshly prepared splenocytes (1×10^6 cells/200 μl/well) were cultured in a 96-well U-bottom microtiter plate (Nunc) in complete medium. Cells were treated with tested compounds at a final concentration of 10 μM, vehicle (DMSO) or left untreated in triplicate then incubated at 37° C. and 5% CO2. When testing the immunoregulatory effects of the compounds on splenocyte stimulation, PHA (5 μg/ml) was added to the culture media to induce T cell proliferation. The proliferative response to PHA+vehicle and vehicle alone served as controls. After 72 hr, media were removed after pelleting the cells by centrifugation and MTT salt solution (5 mg/ml) was added into each well then incubated at 37° C. for 4 h. Afterwards, formazan crystals were dissolved by adding 150 μl 10% sodium dodecyl sulfate (SDS). Absorbance was measured with a spectrophotometer at 570 nm and reference wavelength of 690 nm.
Splenocyte stimulation index was determined as the ratio of O.D. values in tested compounds versus vehicle control cultures.

[11] = test system: lipopolysaccharide-stimulated peritoneal macrophages; experiment: Production of nitric oxide by lipopolysaccharide-stimulated peritoneal macrophages (Greiss reagent); type: cell-based; set-up: Potency (%): % inhibition of nitric oxide production relative to lipopolysaccharide-stimulated macrophages: concentration or dose not given beside the values; conditions: LPS-stimulated peritoneal macrophages
Description: The effects of the synthesized curcumin conjugates on the production of nitric oxide (μM) by lipopolysaccharide-stimulated peritoneal macrophages were evaluated.
Two milliliters of macrophage cells were seeded in 12-well tissue culture plates in nitrite-free medium supplemented with 0.1% bovine serum albumin and incubated at 37° C. LPS±epinephrine, norepinephrine, or dopamine at […] concentrations was added to some wells. The concentrations of LPS used ranged from 0.5 to 10 ng/ml. After incubation for 24 h, supernatants were collected for measuring nitric oxide (NO) by spectrophotometry. The production of NO was determined from the accumulation of nitrite (NO2), the metabolic end product of NO metabolism, in the medium using the Greiss reagent. About equal volumes (100 μl) of sample and Greiss reagent (1:1 mixture of 1% sulfanilamide in 5% phosphoric acid, and 0.1% a-naphthylamine in distilled water) were mixed and incubated at room temperature for 15 min, and absorbance was measured at 532 nm on a spectrophotometer.

[12] = ATCC19615, 18 h, read-out: Minimum inhibitory concentration (MIC)
[13] = ATCC19615, read-out: Minimum inhibitory concentration (MIC)
[14] = ATCC27853, 18 h, read-out: Minimum inhibitory concentration (MIC)
[15] = ATCC27853, read-out: Minimum inhibitory concentration (MIC)
[16] = both, albino, mouse, in vivo, po, 10 mg/kg, 3 days
[17] = orally, three successive days, 10 mg/kg indomethacin mol equivalent

Minimum inhibitory concentration (MIC) ([1]; 37° C., 18 h): 0.39 µg/mL (≈ 0.000422 mM)
Minimum inhibitory concentration (MIC) ([1]; value in brackets): (0.422) μM
Molecule: C[C@@H]1[C@H](O)[C@@H](C)/C=C/C=C/C=C/C=C/C=C/C=C/C=C/[C@H](O[C@@H]2O[C@H](C)[C@@H](O)[C@H](N)[C@@H]2O)C[C@@H]2O[C@](O)(C[C@@H](O)C[C@@H](O)[C@H](O)CC[C@@H](O)C[C@@H](O)CC(=O)O[C@H]1C)C[C@H](O)[C@H]2C(=O)O [Amphotericin B, reference compound]

Molecule: O=C(O)c1cn(C2CC2)c2cc(N3CCNCC3)c(F)cc2c1=O [Ciprofloxacin, reference compound]
MIC ([2]; 18 h): 2.4 µg/mL
MIC [2]: 7.24 µM
MIC [3]: 1250 µg/mL (≈ 3.77 mM)
MIC [4, 12]: 1250 µg/mL
MIC [4, 13]: 3770 µM
MIC [5, 14]: 4.8 µg/mL
MIC [5, 15]: 14.5 µM

Molecule: CC[C@H](C)[C@H](N)C(=O)Oc1ccc(/C=C/C(=O)CC(=O)/C=C/c2ccc(OC(=O)[C@@H](N)[C@@H](C)CC)c(OC)c2)cc1OC.Cl.Cl [Compound 42]
% inhibition of edema ([6]; 1 h): 59% and 33%
Mean edema thickness ([6]; 1 h): 0.99 ± 0.09 mm and 1.61 ± 0.07 mm
% inhibition of edema ([6]; 2 h): 54% and 36%
Mean edema thickness ([6]; 2 h): 0.95 ± 0.09 mm and 1.31 ± 0.09 mm
% inhibition of edema ([6]; 3 h): 65% and 47%
% inhibition of edema ([6]; 4 h): 98% and 76%
% inhibition of edema ([6]; 24 h): 35% and 30%
Mean edema thickness ([6]; 24 h): 0.54 ± 0.01 mm and 0.58 ± 0.08 mm
Potency (% inhibition of edema relative to that of indomethacin reference standard) [6]: 113 and 87

Molecule: COc1cc(/C=C/C(=O)CC(=O)/C=C/c2ccc(OC(=O)[C@@H](N)CCC(N)=O)c(OC)c2)ccc1OC(=O)[C@@H](N)CCC(N)=O.Cl.Cl [Compound 43]
% inhibition of edema ([6]; 1 h): 46%
Mean edema thickness ([6]; 1 h): 1.29 ± 0.19 mm
% inhibition of edema ([6]; 2 h): 45%
Mean edema thickness ([6]; 2 h): 1.14 ± 0.11 mm
% inhibition of edema ([6]; 3 h): 43%
Mean edema thickness ([6]; 3 h): 1.02 ± 0.14 mm
% inhibition of edema ([6]; 4 h): 42%
Mean edema thickness ([6]; 4 h): 0.81 ± 0.11 mm
% inhibition of edema ([6]; 24 h): 31%
Mean edema thickness ([6]; 24 h): 0.57 ± 0.09 mm
Potency (% inhibition of edema relative to that of indomethacin reference standard) [6]: 48

IC50 [7]: 7.17 µM
IC50 [8]: 34.2 µM
IC50 [9]: 20.9 µM
Molecule: COc1cccc2c1C(=O)c1c(O)c3c(c(O)c1C2=O)C[C@@](O)(C(=O)CO)C[C@@H]3O[C@H]1C[C@H](N)[C@H](O)[C@H](C)O1 [DOX, doxorubicin, reference compound]
viability at 10 µM (MCF-7 cells; Homo sapiens, MCF7, 48 h, read-out: Percentage of viable cells MCF-7 (average ± SD), 10 μM DOX in combination with 100 μM curcumin derivative, 48 hr): 44.8%
Percentage of viable cells MCF-7 (average ± SD) (MCF-7 cells; human, 48 h, 100 μM): 0 ± 0.00

Molecule: CC(C)Cc1ccc(C(C)C(=O)O)cc1 (stereo not drawn) [Ibuprofen, 2-(4-isobutylphenyl)propanoic acid, reference compound]
Average of ulcer number (gastric mucosa; [16]): 0.33
Average severity of ulcer (gastric mucosa; [16]): 0.67
Number of animals with ulcer (gastric mucosa; [16]): 2/6
% Incidence of ulcer divided by 10 (gastric mucosa; [17]): 3.33

Molecule: COc1ccc2c(c1)c(CC(=O)O)c(C)n2C(=O)c1ccc(Cl)cc1 [Indomethacin, 2-(1-(4-chlorobenzoyl)-5-methoxy-2-methyl-1H-indol-3-yl)acetic acid, reference compound]
% Incidence of ulcer divided by 10 (gastric mucosa; [16]): 10
Average of ulcer number (gastric mucosa; [16]): 2
Number of animals with ulcer (gastric mucosa; [16]): 6/6
Average severity of ulcer (gastric mucosa; [17]): 1.67
Ulcer index (gastric mucosa; sum of the three values, orally, three successive days, 10 mg/kg indomethacin mol equivalent): 13.67

Molecule: CCn1cc(C(=O)O)c(=O)c2cc(F)c(N3CCNCC3)cc21 [Norfloxacin, reference compound]
MIC ([2]; 18 h): 2.4 µg/mL
MIC [2]: 7.52 µM
MIC [3]: 1250 µg/mL (≈ 3.91 mM)
MIC [4, 12]: 625 µg/mL
MIC [4, 13]: 1960 µM
MIC [5, 14]: 4.8 µg/mL
MIC [5, 15]: 15 µM

Molecule: Phytohaemagglutinin [PHA, reference compound]
Stimulation Index (average ± SD) ([10]; PHA 5 μg/ml, 72 hr, compounds at 5 μM (method says 10 μM), ratio of O.D. versus vehicle control): 2.78 ± 0.28
splenocyte proliferation, fold relative to untreated control cells ([10]; in the presence of PHA, text of b265): 2.76 fold

Molecule: lipopolysaccharide [LPS, reference compound]
Potency (%): % inhibition of nitric oxide production relative to lipopolysaccharide-stimulated macrophages [11]: 0.00%
Nitric oxide (nitrite) concentration, μM (average ± SD) ([11]; 24 h, nitrite by Greiss reagent): 27.31 ± 2.56 µM
